This note sets out measurements from ChEMBL document CHEMBL4834431, “Design of Dimeric Bile Acid Derivatives as Potent and Selective Human NTCP Inhibitors” (J Med Chem, 2021).

This assay concerns Hepatitis B virus. Nature of the assay: Antiviral activity against HBV infected in human HepG2-NTCP cells assessed as reduction in HBeAg secretion incubated for 24 hrs followed replacement with fresh medium and measured at day 5 post infection by ELISA. It counts as functional, organism-based. For orientation: An ELISA detects its analyte on a solid surface through an enzyme-linked reagent.

Take `C[C@@H]1CCC(=O)NCCCNC(=O)CC[C@@H](C)[C@H]2CC[C@H]3[C@@H]4[C@@H](O)C[C@@H]5CC[C@@H](C[C@]5(C)[C@H]4CC[C@]23C)n2cc(nn2)CO[C@H]2CC[C@H]3C[C@H](O)[C@@H]4[C@H](CC[C@]5(C)[C@@H]1CC[C@@H]45)[C@@]3(C)C2`: the half-inhibitory concentration (IC50) (as a rule, the point on the concentration scale where inhibition reaches its midpoint) came to 178 nM.

With `C[C@H](CCC(=O)NCCS(=O)(=O)O)[C@H]1CC[C@H]2[C@@H]3[C@@H](O)C[C@@H]4CC(NCCNC5CC[C@@]6(C)[C@@H](C5)C[C@H](O)[C@@H]5[C@@H]6CC[C@]6(C)[C@@H]([C@H](C)CCC(=O)NCCS(=O)(=O)O)CC[C@@H]56)CC[C@]4(C)[C@H]3CC[C@]12C` (stereo not given in full), the IC50 worked out at 7680 nM.

With `C[C@H](CCC(=O)NCCS(=O)(=O)O)[C@H]1CC[C@H]2[C@@H]3[C@@H](O)C[C@@H]4C[C@H](OCC#CC#CCO[C@@H]5CC[C@@]6(C)[C@@H](C5)C[C@H](O)[C@@H]5[C@@H]6CC[C@]6(C)[C@@H]([C@H](C)CCC(=O)NCCS(=O)(=O)O)CC[C@@H]56)CC[C@]4(C)[C@H]3CC[C@]12C`, the IC50 was 1870 nM.

Take `C[C@H](CCC(=O)NCCS(=O)(=O)O)[C@H]1CC[C@H]2[C@@H]3[C@@H](O)C[C@@H]4C[C@H](OC(=O)CCCCCC(=O)O[C@@H]5CC[C@@]6(C)[C@@H](C5)C[C@H](O)[C@@H]5[C@@H]6CC[C@]6(C)[C@@H]([C@H](C)CCC(=O)NCCS(=O)(=O)O)CC[C@@H]56)CC[C@]4(C)[C@H]3CC[C@]12C`: the IC50 was determined as 683 nM.

With `C[C@H](CCC(=O)NCCS(=O)(=O)O)[C@H]1CC[C@H]2[C@@H]3[C@@H](O)C[C@@H]4C[C@H](NCCCCCN[C@@H]5CC[C@@]6(C)[C@@H](C5)C[C@H](O)[C@@H]5[C@@H]6CC[C@]6(C)[C@@H]([C@H](C)CCC(=O)NCCS(=O)(=O)O)CC[C@@H]56)CC[C@]4(C)[C@H]3CC[C@]12C`, the IC50 was determined as 9650 nM.

Consider `C[C@H](CCC(=O)NCCS(=O)(=O)O)[C@H]1CC[C@H]2[C@@H]3[C@@H](O)C[C@@H]4CC(NC(=O)CCCC(=O)NC5CC[C@@]6(C)[C@@H](C5)C[C@H](O)[C@@H]5[C@@H]6CC[C@]6(C)[C@@H]([C@H](C)CCC(=O)NCCS(=O)(=O)O)CC[C@@H]56)CC[C@]4(C)[C@H]3CC[C@]12C` (stereo not given in full), for which the IC50 is 41 nM.

On to `C[C@H](CCC(=O)NCCS(=O)(=O)O)[C@H]1CC[C@H]2[C@@H]3[C@H](O)C[C@@H]4C[C@H](OC(=O)CCCC(=O)O[C@@H]5CC[C@@]6(C)[C@@H](C5)C[C@@H](O)[C@@H]5[C@@H]6CC[C@]6(C)[C@@H]([C@H](C)CCC(=O)NCCS(=O)(=O)O)CC[C@@H]56)CC[C@]4(C)[C@H]3CC[C@]12C`, for which the IC50 was 187 nM.

Turning to `C[C@H](CCC(=O)O[C@@H]1CC[C@@]2(C)[C@@H](C1)C[C@H](O)[C@@H]1[C@@H]2CC[C@]2(C)[C@@H]([C@H](C)CCC(=O)O[C@@H]3CC[C@@]4(C)[C@@H](C3)C[C@H](O)[C@@H]3[C@@H]4CC[C@]4(C)[C@@H]([C@H](C)CCC(=O)NCCS(=O)(=O)O)CC[C@@H]34)CC[C@@H]12)[C@H]1CC[C@H]2[C@@H]3[C@@H](O)C[C@@H]4C[C@H](O)CC[C@]4(C)[C@H]3CC[C@]12C`, the concentration for half-maximal inhibition (IC50) worked out at 2650 nM.

As for `C[C@H](CCC(=O)NCCS(=O)(=O)O)[C@H]1CC[C@H]2[C@@H]3[C@@H](O)C[C@@H]4CC(NC(=O)CC(=O)NC5CC[C@@]6(C)[C@@H](C5)C[C@H](O)[C@@H]5[C@@H]6CC[C@]6(C)[C@@H]([C@H](C)CCC(=O)NCCS(=O)(=O)O)CC[C@@H]56)CC[C@]4(C)[C@H]3CC[C@]12C` (stereo not given in full), the IC50 came out at 3570 nM.

Regarding `C[C@H](CCCNC(=O)CC[C@@H](C)[C@H]1CC[C@H]2[C@@H]3[C@@H](O)C[C@@H]4C[C@H](O)CC[C@]4(C)[C@H]3CC[C@]12C)[C@H]1CC[C@H]2[C@@H]3[C@@H](O)C[C@@H]4C[C@H](O)CC[C@]4(C)[C@H]3CC[C@]12C`, the IC50 is over 10000 nM.

Consider `C[C@@H]1CCC(=O)NCCCNC(=O)CC[C@@H](C)[C@H]2CC[C@H]3[C@@H]4[C@@H](O)C[C@@H]5C[C@@H](CC[C@]5(C)[C@H]4CC[C@]23C)NC(=O)CCCC(=O)N[C@@H]2CC[C@@]3(C)[C@@H](C2)C[C@H](O)[C@@H]2[C@@H]3CC[C@]3(C)[C@@H]1CC[C@@H]23`, for which the IC50 worked out at 564 nM.

`C[C@H](CCC(=O)O)[C@H]1CC[C@H]2[C@@H]3[C@@H](O)C[C@@H]4C[C@H](NC(=O)CCCC(=O)N[C@@H]5CC[C@@]6(C)[C@@H](C5)C[C@H](O)[C@@H]5[C@@H]6CC[C@]6(C)[C@@H]([C@H](C)CCC(=O)NCCS(=O)(=O)O)CC[C@@H]56)CC[C@]4(C)[C@H]3CC[C@]12C`: the half-maximal inhibitory concentration (IC50) came out at 93 nM.

`C[C@@H]1CCC(=O)NCCNC(=O)CC[C@@H](C)[C@H]2CC[C@H]3[C@@H]4[C@@H](O)C[C@@H]5C[C@H](CC[C@]5(C)[C@H]4CC[C@]23C)NC(=O)CN(C)CC(=O)N[C@@H]2CC[C@@]3(C)[C@@H](C2)C[C@H](O)[C@@H]2[C@@H]3CC[C@]3(C)[C@@H]1CC[C@@H]23`: the IC50 is 1210 nM.

With `C[C@H](CCCOC(=O)CC[C@@H](C)[C@H]1CC[C@H]2[C@@H]3[C@@H](O)C[C@@H]4C[C@H](O)CC[C@]4(C)[C@H]3CC[C@]12C)[C@H]1CC[C@H]2[C@@H]3[C@@H](O)C[C@@H]4C[C@H](O)CC[C@]4(C)[C@H]3CC[C@]12C`, the IC50 turned out to be 2700 nM.

On to `C[C@H](CCC(=O)O)[C@H]1CC[C@H]2[C@@H]3[C@@H](O)C[C@@H]4CC(NC(=O)CCCC(=O)NC5CC[C@@]6(C)[C@@H](C5)C[C@H](O)[C@@H]5[C@@H]6CC[C@]6(C)[C@@H]([C@H](C)CCC(=O)O)CC[C@@H]56)CC[C@]4(C)[C@H]3CC[C@]12C` (stereo not given in full), for which the concentration for half-maximal inhibition (IC50) is 3570 nM.

For the compound `C[C@@H]1CCC(=O)NCCCCCNC(=O)CC[C@@H](C)[C@H]2CC[C@H]3[C@@H]4[C@@H](O)C[C@@H]5CC[C@@H](C[C@]5(C)[C@H]4CC[C@]23C)n2cc(nn2)CO[C@H]2CC[C@H]3C[C@H](O)[C@@H]4[C@H](CC[C@]5(C)[C@@H]1CC[C@@H]45)[C@@]3(C)C2`, the half-inhibitory concentration (IC50) is 465 nM.

For `C[C@H](CCC(=O)NCCS(=O)(=O)O)[C@H]1CC[C@H]2[C@@H]3[C@@H](O)C[C@@H]4C/C(=C5\CC[C@@]6(C)[C@@H](C5)C[C@H](O)[C@@H]5[C@@H]6CC[C@]6(C)[C@@H]([C@H](C)CCC(=O)NCCS(=O)(=O)O)CC[C@@H]56)CC[C@]4(C)[C@H]3CC[C@]12C`, the 50% inhibitory concentration (IC50) is over 10000 nM.

As to `C[C@H](CCC(=O)NCCS(=O)(=O)O)[C@H]1CC[C@H]2[C@@H]3[C@@H](O)C[C@@H]4CC(C5CC[C@@]6(C)[C@@H](C5)C[C@H](O)[C@@H]5[C@@H]6CC[C@]6(C)[C@@H]([C@H](C)CCC(=O)NCCS(=O)(=O)O)CC[C@@H]56)CC[C@]4(C)[C@H]3CC[C@]12C` (stereo not given in full), the concentration for half-maximal inhibition (IC50) was over 10000 nM.

Consider `C[C@H](CCC(=O)O)[C@H]1CC[C@H]2[C@@H]3[C@@H](O)C[C@@H]4C[C@H](OCCCCCO[C@@H]5CC[C@@]6(C)[C@@H](C5)C[C@H](O)[C@@H]5[C@@H]6CC[C@]6(C)[C@@H]([C@H](C)CCC(=O)NCCS(=O)(=O)O)CC[C@@H]56)CC[C@]4(C)[C@H]3CC[C@]12C`, for which the IC50 came to 935 nM.

Regarding `C[C@@H]1CCC(=O)NCCCCNC(=O)CC[C@@H](C)[C@H]2CC[C@H]3[C@@H]4[C@@H](O)C[C@@H]5CC[C@@H](C[C@]5(C)[C@H]4CC[C@]23C)n2cc(nn2)CO[C@H]2CC[C@H]3C[C@H](O)[C@@H]4[C@H](CC[C@]5(C)[C@@H]1CC[C@@H]45)[C@@]3(C)C2`, the 50% inhibitory concentration (IC50) amounted to 280 nM.

On to `C[C@H](CCC(=O)NCCS(=O)(=O)O)[C@H]1CC[C@H]2[C@@H]3[C@@H](O)C[C@@H]4CC(O)(C5(O)CC[C@@]6(C)[C@H](C[C@H](O)[C@@H]7[C@@H]6CC[C@]6(C)[C@@H]([C@H](C)CCC(=O)NCCS(=O)(=O)O)CC[C@@H]76)C5)CC[C@]4(C)[C@H]3CC[C@]12C` (stereo not given in full), for which the IC50 was over 10000 nM.

Turning to `C[C@@H]1CCC(=O)NCCCCCCNC(=O)CC[C@@H](C)[C@H]2CC[C@H]3[C@@H]4[C@@H](O)C[C@@H]5CC[C@@H](C[C@]5(C)[C@H]4CC[C@]23C)n2cc(nn2)CO[C@H]2CC[C@H]3C[C@H](O)[C@@H]4[C@H](CC[C@]5(C)[C@@H]1CC[C@@H]45)[C@@]3(C)C2`, the IC50 stood at 210 nM.

Take `C[C@H](CCC(=O)NCCS(=O)(=O)O)[C@H]1CC[C@H]2[C@@H]3CC[C@@H]4C[C@H](OC(=O)CCCC(=O)O[C@@H]5CC[C@@]6(C)[C@H](CC[C@@H]7[C@@H]6CC[C@]6(C)[C@@H]([C@H](C)CCC(=O)NCCS(=O)(=O)O)CC[C@@H]76)C5)CC[C@]4(C)[C@H]3CC[C@]12C`: the IC50 amounted to 3240 nM.

Take `C[C@@H]1CCC(=O)OCCOC(=O)CC[C@@H](C)[C@H]2CC[C@H]3[C@@H]4[C@@H](O)C[C@@H]5C[C@@H](CC[C@]5(C)[C@H]4CC[C@]23C)NC(=O)CCCC(=O)N[C@@H]2CC[C@@]3(C)[C@@H](C2)C[C@H](O)[C@@H]2[C@@H]3CC[C@]3(C)[C@@H]1CC[C@@H]23`: the IC50 was determined as 185 nM.

Take `C[C@@H]1CCCOC(=O)CC[C@@H](C)[C@H]2CC[C@H]3[C@@H]4[C@@H](O)C[C@@H]5C[C@@H](CC[C@]5(C)[C@H]4CC[C@]23C)NC(=O)CCCC(=O)N[C@@H]2CC[C@@]3(C)[C@@H](C2)C[C@H](O)[C@@H]2[C@@H]3CC[C@]3(C)[C@@H]1CC[C@@H]23`: the 50% inhibitory concentration (IC50) is 525 nM.
